The nature of series [1]: saturation concentration of aqueous solutions, L-enantiomer versus D,L-racemate. Type of series: physicochemical. The note with it: aqueous solution. An excerpt: The L-enantiomer of α-alanine is available at low cost and leads, through Strecker synthesis, as a result of reaction with hydrocyanic acid and formaldehyde in aqueous solution, to L-α-alanine-N,N-diacetonitrile, and saponification thereof with a base leads to aqueous solutions which not only have a higher saturation concentration of the L-enantiomer compared to the D,L-racemate of the MGDA trialkali metal salts, but which also produce a readily crystallizing solid by means of crystallization.

Series [2] in a line: solubility limit / achievable concentration in water. Type of series: physicochemical.

As to “methylglycine-N,N-diacetic acid trialkali metal salt [L-MGDA trialkali metal salt]”, the “solubility compared to the racemate” value in series [1] is recorded as “higher”.

For `C[C@H](N)C(=O)O` [α-alanine], the solubility limit result in series [2] is reported as “ca. 18 % by weight”.

The record behind these values is patent US8802894B2, “Process for the preparation of aqueous solutions of methylglycine-N,N-diacetic acid trialkali metal salts” (BASF SE, priority 2012, dated 2014).
